Read-outs that look alike come from different tables or passages of the source.
Assays:
[1] = tested on: IL-2 production by Jurkat E6-1 cells; test: Cytokine (IL-2) release from PMA pre-treated, anti-CD28 stimulated Jurkat E6-1 cells (DELFIA); format: cell-based; conditions: for IC50: anti-CD28, 18 hours, read-out: IC50 for the inhibition of anti-CD28 induced IL-2 production by Jurkat E6-1 cells
Procedure: Jurkat E6-1 cell line was obtained from American Tissue Culture Collection (ATCC, Rockville, USA). The cells were pre-treated with 3 ng/ml phorbol myristate acetate (PMA) for three hours, washed and exposed to dose ranges of the compound to be tested followed by the addition of 5 μg/ml anti-CD28.
After 18 hours incubation at 37° C. and 5% CO2, cell culture supernatants were harvested for determination of IL-2 secretion by Dissociation Enhanced Lanthanide Fluorescence Immuno Assay (DELFIA). The effect of compound on cell cytotoxicity was determined using a redox potential sensitive dye, resazurin. Effects on protein synthesis were determined by investigation of [^3H] leucine uptake.

recombinant abl kinase = recombinant abl kinase (Homo sapiens, UniProt P00519); test: Inhibition of tyrosine kinase activity (abl kinase, LANCE time resolved fluorescence); format: biochemical; conditions: for IC50: abl kinase, peptide 6-20 p34cdc substrate
Source text: Phosphorylation of the peptide substrate was detected using a non-separation time resolved fluorescence assay (LANCE™) using anti-phosphotyrosine conjugated europium and streptavidin conjugated allophycocyanin (APC).

[2] = tested on: TNF-α secretion by monocytes; test: Cytokine (TNF-α) release from LPS stimulated monocytes (DELFIA); format: cell-based; conditions: Homo sapiens, Monocyte
Procedure: The effect of compound (Ia) on TNF-α release was investigated using a previously described method (Bakouche, O. et al., (1992), J. Immunol: 14, 84-91). Human monocytes were purified by elutriation from Buffy coats obtained from normal healthy donors after the separation of peripheral blood mononuclear cells (PBMC) on Lymphoprep. The monocytes were suspended in RPMI 1640 with 5% FBS and exposed to dose ranges of the compound to be tested followed by the addition of 1 ng/ml LPS. After incubation for 18 hours at 37° C. and 5% CO2 cell culture supernatants were harvested and stored at −70° C. Effects on TNF-α release were determined using a DELFIA.

T cells = test: Toxicity to T cells; format: cell-based, human; conditions: 0.06 to 7 μM
[3] = tested on: IL2 production by T cells; test: Cytokine (IL-2) release from purified T cells stimulated with anti-CD3 and anti-CD28 (DELFIA); format: cell-based; conditions: Homo sapiens, T-cell
Source text: The effect of compound (Ia) on IL-2 release was investigated using a previously described method (Van Cool S. W. et al., (1993) J. Immunol. 150: 3254-3263). T cells were purified by depletion of B cells and monocytes from Buffy coats obtained from normal healthy donors following separation of human peripheral blood mononuclear cells (PBMC) on Lymphoprep. Purified T cells were suspended in RPMI 1640 supplemented with 5% fetal bovine serum (FBS) and aliquoted into 96 well plates coated with anti-CD3. Cells were exposed to dose ranges of the compound to be tested followed by the addition of 5 μg/ml anti-CD28 and incubated for 18 hours at 37° C. and 5% CO2. IL-2 secretion in cell culture supernatants was determined using IL-2 DELFIA.

TNF-α = TNF-α release from PHA and LPS stimulated whole blood (DELFIA); format: cell-based; conditions: Homo sapiens
Procedure: (§1) Whole blood samples obtained from up to seven normal healthy volunteers were diluted in an equal volume of RPMI 1640 with 5% FBS and exposed to dose ranges of compound (Ia) followed by the addition of 10 μg/ml phytohaemagglutinin (PHA) and 100 ng/ml LPS. After incubation for 48 hours at 37° C. and 5% CO2 serum samples were harvested for determination of effect on IL-2 and TNF-α secretion using DELFIAs specific for each cytokine respectively.

IL-2 = IL-2 release from PHA and LPS stimulated whole blood (DELFIA); format: cell-based; conditions: Homo sapiens
Procedure: as §1

[4] = Homo sapiens, Jurkat E6.1, PMA pre-treated

Sequence of recombinant abl kinase (P00519 whole entry): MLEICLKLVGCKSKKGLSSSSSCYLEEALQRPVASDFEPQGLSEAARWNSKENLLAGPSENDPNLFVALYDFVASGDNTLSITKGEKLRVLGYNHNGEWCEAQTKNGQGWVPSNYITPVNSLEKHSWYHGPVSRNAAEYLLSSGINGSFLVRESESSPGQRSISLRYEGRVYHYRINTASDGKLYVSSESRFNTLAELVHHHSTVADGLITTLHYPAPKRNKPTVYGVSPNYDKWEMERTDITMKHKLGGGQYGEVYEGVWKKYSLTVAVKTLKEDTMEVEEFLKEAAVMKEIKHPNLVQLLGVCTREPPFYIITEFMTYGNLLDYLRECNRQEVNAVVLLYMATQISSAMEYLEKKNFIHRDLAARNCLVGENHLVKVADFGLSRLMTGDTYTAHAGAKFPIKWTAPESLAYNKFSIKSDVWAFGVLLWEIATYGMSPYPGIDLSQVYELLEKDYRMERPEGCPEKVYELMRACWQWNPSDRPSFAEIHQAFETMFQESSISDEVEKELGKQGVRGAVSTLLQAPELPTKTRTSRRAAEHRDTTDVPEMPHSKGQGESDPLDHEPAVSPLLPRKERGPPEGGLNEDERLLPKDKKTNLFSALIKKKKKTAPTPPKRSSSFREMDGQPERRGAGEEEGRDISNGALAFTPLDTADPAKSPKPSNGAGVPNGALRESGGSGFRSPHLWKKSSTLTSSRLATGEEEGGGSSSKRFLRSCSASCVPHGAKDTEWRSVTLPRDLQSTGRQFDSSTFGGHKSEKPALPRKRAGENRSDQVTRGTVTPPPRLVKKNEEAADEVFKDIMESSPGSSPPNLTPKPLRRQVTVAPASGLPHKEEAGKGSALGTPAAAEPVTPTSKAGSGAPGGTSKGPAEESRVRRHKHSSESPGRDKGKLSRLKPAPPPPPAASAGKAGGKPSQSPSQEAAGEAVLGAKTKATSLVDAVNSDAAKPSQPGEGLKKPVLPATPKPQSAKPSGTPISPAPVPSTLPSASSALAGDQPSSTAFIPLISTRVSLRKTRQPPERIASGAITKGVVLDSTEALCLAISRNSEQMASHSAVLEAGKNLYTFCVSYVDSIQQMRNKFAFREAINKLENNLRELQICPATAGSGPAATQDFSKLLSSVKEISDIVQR

For `CCO[C@@H]1c2c(O)cccc2C2=C3CCC(=O)c4c(O)ccc(c43)[C@@H]2[C@H]1OC` [Compound 10a], the IC50 [1, 4] was over 7.94 µM and the IC50 (recombinant abl kinase) was over 5 µM.

In the case of `CCCOC1c2c(O)cccc2C2=C3CCC(=O)c4c(O)ccc(c43)C2C1OC` (stereo not drawn) [Compound 9, 4,9-Dihydro-7-methoxy-8-propoxy-1,6b,7,8-tetrahydro-2H-benzo[j]fluoranthen-3-one], the IC50 [1, 4] is reported as 10.9 µM and the IC50 (recombinant abl kinase) is reported as 0.132 µM.

`COC1c2c(O)cccc2C2=C3CCC(=O)c4c(O)ccc(c43)C2C1OC` (stereo not drawn) [Compound (III)] gave an IC50 ([1]; PMA pre-treated) of 4.3 µM.

`COC1C(O)c2c(O)cccc2C2=C3CCC(=NO)c4c(O)ccc(c43)C21` (stereo not drawn) [Compound 7, 4,8,9-Trihydroxy-7-methoxy-1,6b,7,8-tetrahydro-2H-benzo[j]fluoranthen-3-one oxime] was tested, and the IC50 [1, 4] was over 1.49 µM and the IC50 (recombinant abl kinase) was over 1 µM.

For `COC1C(O)c2c(O)cccc2C2=C3CCC(O)c4c(O)ccc(c43)C21` (single isomer, unassigned) [Compound 2b], the IC50 (recombinant abl kinase) was over 1 µM.

`COC1C(O)c2c(O)cccc2C23OC24CCC(=O)c2c(O)ccc(c24)C13` (stereo not drawn) [Compound 3] showed an IC50 [1, 4] of over 9.56 µM and an IC50 (recombinant abl kinase) of 0.7 µM.

With `COC1C(O)c2c(O)cccc2C2=C3CCC(O)c4c(O)ccc(c43)C21` (single isomer, unassigned) [Compound 2a] the IC50 [1, 4] was 2.96 µM and the IC50 (recombinant abl kinase) was over 1 µM.

`COC1c2c(O)cccc2C2=C3CCC(=O)c4c(O)ccc(c43)C2C1OC` (stereo not drawn) [Compound 11, 4,9-Dihydroxy-7,8-dimethoxy-1,6b,7,8-tetrahydro-2H-benzo[j]fluroanthen-3-one] showed an IC50 ([1]; PMA pre-treated) of 1.06 µM and an IC50 (recombinant abl kinase) of 0.045 µM.

For `CO[C@H]1[C@H](OC)c2c(O)cccc2C2=C3CCC(=O)c4c(O)ccc(c43)[C@@H]21` (relative stereo) [Compound 11a], the IC50 [1, 4] was over 6.18 µM and the IC50 (recombinant abl kinase) was 2.36 µM.

`COC1C(O)c2c(O)cccc2C2=C3CCC(NC4CC4)c4c(O)ccc(c43)C21` (stereo not drawn) [Compound 5, 3-Cyclopropylamino-7-methoxy-1,2,3,6b, 7,8-hexahydrobenzo[d]fluoranthen-4,8,9-triol] gave an IC50 [1, 4] of 1.28 µM and an IC50 (recombinant abl kinase) of over 1 µM.

Compound `CO[C@@H]1[C@@H]2C(=C3CCC(=O)c4c(O)ccc2c43)c2cccc(O)c2[C@@H]1O` (relative stereo) [Compound (Ia)] has an inhibition at 0.09 µM ([2]; 0.09 µM, read-out: % Inhibition of LPS induced TNF-a by monocytes) of 19%, an inhibition at 0.18 µM ([2]; 0.18 µM, read-out: % Inhibition of LPS induced TNF-a by monocytes) of 32.1% and an inhibition at 0.36 µM ([2]; 0.36 µM, read-out: % Inhibition of LPS induced TNF-a by monocytes) of 48.1%. It also gave an inhibition at 0.7 µM ([2]; 0.7 µM, read-out: % Inhibition of LPS induced TNF-a by monocytes) of 57.6%, an inhibition at 1.4 µM ([2]; 1.4 µM, read-out: % Inhibition of LPS induced TNF-a by monocytes) of 73.2% and an inhibition at 2.9 µM ([2]; 2.9 µM, read-out: % Inhibition of LPS induced TNF-a by monocytes) of 80%. For the same compound, the inhibition at 5.7 µM ([2]; 5.7 µM, read-out: % Inhibition of LPS induced TNF-a by monocytes) was 89%, the IC50 ([2]; 18 hours, read-out: IC50 for inhibition of LPS induced TNF-α secretion by monocytes) was 0.42 µM and the “toxicity to T cells” value (T cells) was “not toxic”. For the same compound, the inhibition at 0.056 µM ([3]; 0.056 µM, read-out: % Inhibition of anti-CD-28 and Anti-CD3 induced IL-2 by T cells) was 29.8%, the inhibition at 0.11 µM ([3]; 0.11 µM, read-out: % Inhibition of anti-CD-28 and Anti-CD3 induced IL-2 by T cells) was 47.3% and the inhibition at 0.22 µM ([3]; 0.22 µM, read-out: % Inhibition of anti-CD-28 and Anti-CD3 induced IL-2 by T cells) was 106%. It also gave an inhibition at 0.44 µM ([3]; 0.44 µM, read-out: % Inhibition of anti-CD-28 and Anti-CD3 induced IL-2 by T cells) of 88.3%, an inhibition at 0.89 µM ([3]; 0.89 µM, read-out: % Inhibition of anti-CD-28 and Anti-CD3 induced IL-2 by T cells) of 98.6% and an inhibition at 1.8 µM ([3]; 1.8 µM, read-out: % Inhibition of anti-CD-28 and Anti-CD3 induced IL-2 by T cells) of 100%. The inhibition at 3.6 µM ([3]; 3.6 µM, read-out: % Inhibition of anti-CD-28 and Anti-CD3 induced IL-2 by T cells) was 100%, the inhibition at 7.1 µM ([3]; 7.1 µM, read-out: % Inhibition of anti-CD-28 and Anti-CD3 induced IL-2 by T cells) was 100% and the IC50 ([3]; 18 hours, read-out: IC50 for inhibition of anti-CD3 and anti-CD28 induced IL2 production by T cells) was 0.12 µM. For the same compound, the IC50 (TNF-α; Donor 1, read-out: IC50 Inhibition of TNF-α) was 14 µM, the IC50 (TNF-α; Donor 2, read-out: IC50 Inhibition of TNF-α) was 14 µM and the IC50 (TNF-α; Donor 3, read-out: IC50 Inhibition of TNF-α) was 0.7 µM. The IC50 (TNF-α; Donor 4, read-out: IC50 Inhibition of TNF-α) was over 2.7 µM, the IC50 (TNF-α; Donor 5, read-out: IC50 Inhibition of TNF-α) was 5.3 µM and the IC50 (TNF-α; Donor 6, read-out: IC50 Inhibition of TNF-α) was 3 µM. For the same compound, the IC50 (IL-2; Donor 1, read-out: IC50 Inhibition of IL-2) was 0.22 µM, the IC50 (IL-2; Donor 2, read-out: IC50 Inhibition of IL-2) was 1.2 µM and the IC50 (IL-2; Donor 3, read-out: IC50 Inhibition of IL-2) was 0.43 µM. For the same compound, the IC50 (IL-2; Donor 4, read-out: IC50 Inhibition of IL-2) was over 2.7 µM, the IC50 (IL-2; Donor 5, read-out: IC50 Inhibition of IL-2) was under 0.4 µM and the IC50 (IL-2; Donor 6, read-out: IC50 Inhibition of IL-2) was under 0.4 µM. It also gave an IC50 [1, 4] of 0.34 µM, an inhibition at 0.056 µM ([1]; Homo sapiens, Jurkat E6.1, 0.056 μM, read-out: % Inhibition of anti-CD28 induced IL-2 by PMA pre-treated Jurkat E6-1) of 29% and an inhibition at 0.11 µM ([1]; Homo sapiens, Jurkat E6.1, 0.11 μM, read-out: % Inhibition of anti-CD28 induced IL-2 by PMA pre-treated Jurkat E6-1) of 30.5%. The inhibition at 0.22 µM ([1]; Homo sapiens, Jurkat E6.1, 0.22 μM, read-out: % Inhibition of anti-CD28 induced IL-2 by PMA pre-treated Jurkat E6-1) was 36%, the inhibition at 0.44 µM ([1]; Homo sapiens, Jurkat E6.1, 0.44 μM, read-out: % Inhibition of anti-CD28 induced IL-2 by PMA pre-treated Jurkat E6-1) was 57.8% and the inhibition at 0.89 µM ([1]; Homo sapiens, Jurkat E6.1, 0.89 μM, read-out: % Inhibition of anti-CD28 induced IL-2 by PMA pre-treated Jurkat E6-1) was 85.4%. It also gave an inhibition at 1.8 µM ([1]; Homo sapiens, Jurkat E6.1, 1.8 μM, read-out: % Inhibition of anti-CD28 induced IL-2 by PMA pre-treated Jurkat E6-1) of 92.2%, an inhibition at 3.6 µM ([1]; Homo sapiens, Jurkat E6.1, 3.6 μM, read-out: % Inhibition of anti-CD28 induced IL-2 by PMA pre-treated Jurkat E6-1) of 89.1% and an inhibition at 7.1 µM ([1]; Homo sapiens, Jurkat E6.1, 7.1 μM, read-out: % Inhibition of anti-CD28 induced IL-2 by PMA pre-treated Jurkat E6-1) of 91.5%. The “concentrations at which phosphorylation of the peptide by abl kinase was inhibited” value (recombinant abl kinase) was 0.001 to 5.2 µM, the inhibition at 0.001 µM (recombinant abl kinase; 0.001 μM) was 39% and the inhibition at 0.01 µM (recombinant abl kinase; 0.01 μM) was 56.2%. It also gave an inhibition at 0.081 µM (recombinant abl kinase; 0.081 μM) of 86.3%, an inhibition at 0.65 µM (recombinant abl kinase; 0.65 μM) of 98.6% and an inhibition at 5.2 µM (recombinant abl kinase; 5.2 μM) of 100%. It also gave an IC50 (recombinant abl kinase) of 0.006 µM.

With `COC1C(=O)c2c(O)cccc2C2=C3CCC(=O)c4c(O)ccc(c43)C21` (stereo not drawn) [Compound (II)] the IC50 [1, 4] was over 5 µM and the IC50 (recombinant abl kinase) was over 5 µM.

With `CCOC1c2c(O)cccc2C2=C3CCC(=O)c4c(O)ccc(c43)C2C1OC` (stereo not drawn) [Compound 10, 8-Ethoxy-4,9-dihydroxy-7-methoxy-1,6b,7,8-tetrahydro-2H-benzo[j]fluoranthen-3-one] the IC50 [1, 4] was 2.35 µM and the IC50 (recombinant abl kinase) was 0.274 µM.

With `CO[C@H]1[C@@H](O)c2c(O)cccc2C2=C3CCC(=O)c4c(O)ccc(c43)[C@H]21` [Compound (Ib)] the IC50 [1, 4] was 2.5 µM.

`COC1C(O)c2c(O)cccc2C2=C3CCC(=O)c4c(O)c(Cl)cc(c43)C21` (stereo not drawn) [Compound 8, 5-Chloro-4,8,9-trihydroxy-7-methoxy-1,6b,7,8-tetrahydro-2H-benzo[j]fluoranthen-3-one] was tested, and the IC50 (recombinant abl kinase) was over 1 µM.

`COc1cccc2c1C(O)C(OC)C1C2=C2CCC(=O)c3c(O)ccc1c32` (stereo not drawn) [Compound 4] showed an IC50 [1, 4] of 6.64 µM and an IC50 (recombinant abl kinase) of over 1 µM.

Reference: patent publication US6518316B1, “Cytokine production and tyrosine kinase inhibitors” (Xenova Limited, priority 1998, dated 2003)
